From PubChem BioAssay (NCI)
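Briefly, cells in 96-well plates were exposed to five compound concentrations for 48 h, and endpoints were estimated by linear interpolation. TGI: total growth inhibition.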

Assays:
Assay in all cases: NCI anticancer screen, dose series, 48 h
SNB-75 CNS = system: SNB-75 CNS
KM20L2 colon = system: KM20L2 colon
NCI-H460 lung = system: NCI-H460 lung
OVCAR-8 ovarian = system: OVCAR-8 ovarian
TK-10 renal = system: TK-10 renal
UO-31 renal = system: UO-31 renal
EKVX NSCLC = system: EKVX NSCLC
DLD-1 colon = system: DLD-1 colon
HOP-18 NSCLC = system: HOP-18 NSCLC
U251 CNS = system: U251 CNS
786-0 renal = system: 786-0 renal
RXF-631 renal = system: RXF-631 renal
CAKI-1 renal = system: CAKI-1 renal
LXFL 529 NSCLC = system: LXFL 529 NSCLC
RPMI-8226 leukemia = system: RPMI-8226 leukemia
A498 renal = system: A498 renal
HCT-116 colon = system: HCT-116 colon
DMS 114 small cell lung = system: DMS 114 small cell lung
SNB-19 CNS = system: SNB-19 CNS
SK-OV-3 ovarian = system: SK-OV-3 ovarian
HT29 colon = system: HT29 colon
KM12 colon = system: KM12 colon
M19-MEL melanoma = system: M19-MEL melanoma
LOX IMVI melanoma = system: LOX IMVI melanoma
SF-268 CNS = system: SF-268 CNS
OVCAR-5 ovarian = system: OVCAR-5 ovarian
NCI-H23 lung = system: NCI-H23 lung
HCT-15 colon = system: HCT-15 colon
SR leukemia = system: SR leukemia
UACC-257 melanoma = system: UACC-257 melanoma
RXF 393 renal = system: RXF 393 renal
XF 498 CNS = system: XF 498 CNS
SW-620 colon = system: SW-620 colon
OVCAR-4 ovarian = system: OVCAR-4 ovarian
M14 melanoma = system: M14 melanoma
SF-295 CNS = system: SF-295 CNS
COLO 205 colon = system: COLO 205 colon
UACC-62 melanoma = system: UACC-62 melanoma
HOP-92 NSCLC = system: HOP-92 NSCLC
MALME-3M melanoma = system: MALME-3M melanoma
DMS 273 small cell lung = system: DMS 273 small cell lung
HL-60(TB) leukemia = system: HL-60(TB) leukemia
SK-MEL-28 melanoma = system: SK-MEL-28 melanoma
OVCAR-3 ovarian = system: OVCAR-3 ovarian
HOP-62 NSCLC = system: HOP-62 NSCLC
HCC-2998 colon = system: HCC-2998 colon
SN12C renal = system: SN12C renal
MOLT-4 leukemia = system: MOLT-4 leukemia
SK-MEL-5 melanoma = system: SK-MEL-5 melanoma
IGROV1 ovarian = system: IGROV1 ovarian
CCRF-CEM leukemia = system: CCRF-CEM leukemia
ACHN renal = system: ACHN renal
NCI-H226 lung = system: NCI-H226 lung
SNB-78 CNS = system: SNB-78 CNS
SF-539 CNS = system: SF-539 CNS
A549 NSCLC = system: A549 NSCLC

Which TGI (SNB-75 CNS) does the source give for `CCCCCCCCCCCCCCCCCC(=O)NCC(COP(=O)([O-])OCC[N+](C)(C)C)OC` (stereo unspecified) here?
The TGI was 15.8 µM.

And the TGI (KM20L2 colon)?
Its TGI is 5.5 µM.

And the TGI (NCI-H460 lung)?
The TGI was 2.59 µM.

What about the TGI (OVCAR-8 ovarian) of the same molecule?
The TGI was 23.6 µM.

And the TGI (TK-10 renal)?
The TGI was 3.02 µM.

And the TGI (UO-31 renal)?
The TGI was 30.7 µM.

What about the TGI (EKVX NSCLC) of the same molecule?
Its TGI is 31.1 µM.

And the TGI (DLD-1 colon)?
The TGI was 8.17 µM.

What about the TGI (HOP-18 NSCLC) of the same molecule?
The TGI was 6.92 µM.

And the TGI (U251 CNS)?
Its TGI is 4.04 µM.

What about the TGI (786-0 renal) of the same molecule?
Its TGI is 3.07 µM.

And the TGI (RXF-631 renal)?
The TGI was 26.8 µM.

What about the TGI (CAKI-1 renal) of the same molecule?
Its TGI is 8.14 µM.

What about the TGI (LXFL 529 NSCLC) of the same molecule?
The TGI was 19.7 µM.

What about the TGI (RPMI-8226 leukemia) of the same molecule?
Its TGI is 4.67 µM.

And the TGI (A498 renal)?
Its TGI is 10.3 µM.

And the TGI (HCT-116 colon)?
Its TGI is 18.5 µM.

And the TGI (DMS 114 small cell lung)?
Its TGI is 22.7 µM.

And the TGI (SNB-19 CNS)?
Its TGI is 3.48 µM.

What about the TGI (SK-OV-3 ovarian) of the same molecule?
The TGI was 28.7 µM.

And the TGI (HT29 colon)?
The TGI was 12.9 µM.

And the TGI (KM12 colon)?
The TGI was 2.09 µM.

And the TGI (M19-MEL melanoma)?
Its TGI is 6.28 µM.

And the TGI (LOX IMVI melanoma)?
The TGI was 23.3 µM.

What about the TGI (SF-268 CNS) of the same molecule?
The TGI was 17.5 µM.

What about the TGI (OVCAR-5 ovarian) of the same molecule?
The TGI was 14.4 µM.

What about the TGI (NCI-H23 lung) of the same molecule?
The TGI was 28.7 µM.

And the TGI (HCT-15 colon)?
The TGI was 5.89 µM.

What about the TGI (SR leukemia) of the same molecule?
Its TGI is 7.36 µM.

And the TGI (UACC-257 melanoma)?
Its TGI is 30.2 µM.

And the TGI (RXF 393 renal)?
The TGI was 2.1 µM.

What about the TGI (XF 498 CNS) of the same molecule?
The TGI was 8.58 µM.

What about the TGI (SW-620 colon) of the same molecule?
Its TGI is 22.9 µM.

What about the TGI (OVCAR-4 ovarian) of the same molecule?
Its TGI is 13 µM.

What about the TGI (M14 melanoma) of the same molecule?
The TGI was 25.5 µM.

And the TGI (SF-295 CNS)?
Its TGI is 13 µM.

And the TGI (COLO 205 colon)?
The TGI was 3.24 µM.

And the TGI (UACC-62 melanoma)?
Its TGI is 16.9 µM.

What about the TGI (HOP-92 NSCLC) of the same molecule?
The TGI was 8.17 µM.

What about the TGI (MALME-3M melanoma) of the same molecule?
The TGI was 20.9 µM.

What about the TGI (DMS 273 small cell lung) of the same molecule?
The TGI was 2.93 µM.

What about the TGI (HL-60(TB) leukemia) of the same molecule?
The TGI was 2.9 µM.

And the TGI (SK-MEL-28 melanoma)?
Its TGI is 30.6 µM.

And the TGI (OVCAR-3 ovarian)?
The TGI was 10.2 µM.

And the TGI (HOP-62 NSCLC)?
Its TGI is 8.21 µM.

What about the TGI (HCC-2998 colon) of the same molecule?
Its TGI is 2.31 µM.

And the TGI (SN12C renal)?
The TGI was 15.3 µM.

What about the TGI (MOLT-4 leukemia) of the same molecule?
Its TGI is 3.56 µM.

What about the TGI (SK-MEL-5 melanoma) of the same molecule?
Its TGI is 29.5 µM.

What about the TGI (IGROV1 ovarian) of the same molecule?
The TGI was 4.72 µM.

What about the TGI (CCRF-CEM leukemia) of the same molecule?
The TGI was 5.66 µM.

What about the TGI (ACHN renal) of the same molecule?
The TGI was 22.7 µM.

What about the TGI (NCI-H226 lung) of the same molecule?
The TGI was 8.69 µM.

And the TGI (SNB-78 CNS)?
Its TGI is 13.6 µM.

And the TGI (SF-539 CNS)?
Its TGI is 31.8 µM.

And the TGI (A549 NSCLC)?
The TGI was 22.4 µM.
